Data set [1] can be described thus: solubility in aqueous buffer. It is filed as physicochemical.
Data set [2] can be described thus: cytotoxic activity in the L1210 assays.
For a further data set, the system named is L1210 cell line. The experiment in a line: cytotoxic activity in the L1210 assays. The following applies: L1210 assays.
The test system of the next data set is supercoiled ΦX174 DNA. Kind of data set: unwinding and rewinding of negatively supercoiled DNA, agarose gel electrophoresis. The class given is biochemical. An excerpt:
Confirmation that thiocoraline and BE-22179 bind to DNA with bisintercalation was derived from their ability to induce the unwinding of negatively supercoiled DNA. This was established by their ability to gradually decrease the agarose gel electrophoresis mobility of supercoiled ΦX174 DNA (unwinding) at increasing concentrations followed by a return to normal mobility (rewinding) at even higher concentrations. Under the conditions employed, echinomycin unwound ΦX174 DNA at a 0.044 agent/base pair ratio (FIG. 11 and FIG. 12). Thiocoraline completely unwound ΦX174 DNA at a higher 0.11 agent/base pair ratio, whereas BE-22179 required even higher concentrations producing the unwinding at an agent/base pair ratio of 1.1. […] Thus, the distinctions in 1 and 2 and echinomycin detected here appear to be related to the nature of the cyclic depsipeptide and not the structure of the chromophore.
FIG. 8 is a table of comparative DNA binding properties. ^aCalf thymus DNA, KB=apparent binding constant determined by fluorescence quenching. The value in paren-theses is the agent/base pair ratio at saturated high-affinity binding and may be considered a measure of the selectivity of binding. ^bAgent/base pair ratio required to unwind negatively supercoiled FX174 DNA (form I to form II gel mobility, 0.9% agarose gel). ^cAgent/base pair ratio required to induce complete rewinding or positive super-coiling of FX174 DNA (form II to form I gel mobility, 0.9% agarose gel). ^dBinding constant established by footprinting at a 5′-CCGC site (FIG. 9).
(A) Lane 1, untreated supercoiled FX174 DNA, 95% form 1 and 5% form II; lanes 2-8, thiocoraline-treated FX174 DNA; lanes 9-14, echinomycin-treated FX174 DNA. The [agent]-to-[base pair] ratios were 0.022 (lanes 2 and 9), 0.033 (lanes 3 and 10), 0.044 (lanes 4 and 11), 0.066 (lanes 5 and 12), 0.11 (lanes 6 and 13), 0.22 (lanes 7 and 14), and 0.44 (lane 8). (B) Lane 1, untreated supercoiled FX174 DNA, lanes 2-12, BE-22179-treated FX174 DNA. The [agent]-to-[base pair] ratios were 0.022, (lane 2), 0.033 (lane 3), 0.044 (lane 4), 0.066 (lane 5), 0.11 (lane 6), 0.22 (lane 7), and 0.33 (lane 8), 0.44 (lane 9), 0.66 (lane 10), 1.1 (lane 11), and 2.2 (lane 12). (C) Lane 1, untreated supercoiled FX174 DNA, 95% form 1 and 5% form II; lanes 2-8, thiocoraline analogue (27)-treated FX174 DNA. The [agent]-to-[base pair] ratios were 0.022 (lane 2), 0.033 (lane 3), 0.044 (lane 4), 0.066 (lane 5), 0.11 (lane 6), 0.22 (lane 7), and 0.44 (lane 8).

Data set [3] deals with HIV-1 reverse transcriptase (Human immunodeficiency virus type 1 group M subtype B, UniProt P03366). The experiment in a line: inhibition of HIV-1 reverse transcriptase. It is filed as biochemical.

The values below come from patent publication US20040072738A1, “Analogues of thiocoraline and be-22179” (priority 2000, published 2004).

pIC50: −log10 of the molar value. Converted amounts (≈) assume the structure as drawn. Bridge positions count the residues as written; N and C are the ends. Square brackets hold non-standard residues; d marks the D form. Peptide text beside a SMILES is read from it. I, II: the chains in the order shown. * marks the point of attachment. Quinaldoyl(3-OH,6-OMe) = COc1ccc2nc(C(=O)*)c(O)cc2c1; Quinoxaline2carbonyl = O=C(c1cnc2ccccc2n1)*; Quinaldoyl(3-OH) = O=C(c1nc2ccccc2cc1O)*; Fmoc = O=C(OCC1c2ccccc2-c2ccccc21)*; Quinaldoyl = O=C(c1ccc2ccccc2n1)*; NMeC = CN[C@@H](CS)C(=O)O; Cbz = O=C(OCc1ccccc1)*; NMeDha = C=C(NC)C(=O)O

One may read the pIC50 as the IC50 on a negative log10 scale, so that one unit is a factor of ten. A lower pIC50 goes with a large IC50. With `C=C1C(=O)SC[C@@H](NC(=O)c2nc3ccccc3cc2O)C(=O)NCC(=O)N(C)[C@H]2CSSC[C@@H](C(=O)N1C)N(C)C(=O)CNC(=O)[C@H](NC(=O)c1nc3ccccc3cc1O)CSC(=O)C(=C)N(C)C2=O` [BE-22179] (I: {Quinaldoyl(3-OH)}-[dC]G[NMeC][NMeDha] / II: {Quinaldoyl(3-OH)}-[dC]G[NMeC][NMeDha]; thioester I:1-II:C, I:C-II:1; disulfide I:3-II:3), in data set [1] (Tris-HCl pH 7.4, 75 mM NaCl, read-out: agent concentrations where the compounds are soluble), the solubility lay within 1 to 10 µM (≈ 1.06 to 10.6 µg/mL). For the same molecule, the pIC50 in data set [2] is 9.40.
With `CSC[C@H]1C(=O)SC[C@@H](NC(=O)OCc2ccccc2)C(=O)NCC(=O)N(C)[C@H]2CSSC[C@@H](C(=O)N1C)N(C)C(=O)CNC(=O)[C@H](NC(=O)OCc1ccccc1)CSC(=O)[C@H](CSC)N(C)C2=O` [Compound 23, [N-Cbz-D-Cys-Gly-NMe-L--Cys-NMe-L--Cys(Me)]2 (Cysteine Thiol) Dilactone] (I: Cbz-[dC]G[NMeC][NMeC](Me) / II: Cbz-[dC]G[NMeC][NMeC](Me); thioester I:1-II:C, I:C-II:1; disulfide I:3-II:3), in the data set with L1210 cell line, the “cytotoxic activity (in words)” value is “inactive”.
With `CSC[C@H]1C(=O)SC[C@@H](NC(=O)c2ccc3ccccc3n2)C(=O)NCC(=O)N(C)[C@H]2CSSC[C@@H](C(=O)N1C)N(C)C(=O)CNC(=O)[C@H](NC(=O)c1ccc3ccccc3n1)CSC(=O)[C@H](CSC)N(C)C2=O` [Compound 26, [N-(2-Quinoline Carboxyl)-D-Cys-Gly-NMe-L--Cys-NMe-L--Cys(Me)]2 (Cysteine Thiol) Dilactone] (I: Quinaldoyl-[dC]G[NMeC][NMeC](Me) / II: Quinaldoyl-[dC]G[NMeC][NMeC](Me); thioester I:1-II:C, I:C-II:1; disulfide I:3-II:3), in the data set on L1210 cell line, the “cytotoxic activity (in words)” value is listed as “less potent cytotoxic activity”.
Same read-out and setting: the entry for `CSC[C@H]1C(=O)SC[C@@H](NC(=O)c2cnc3ccccc3n2)C(=O)NCC(=O)N(C)[C@H]2CSSC[C@@H](C(=O)N1C)N(C)C(=O)CNC(=O)[C@H](NC(=O)c1cnc3ccccc3n1)CSC(=O)[C@H](CSC)N(C)C2=O` [Compound 27, [N-(2-Quinoxaline carboxyl)-D-Cys-Gly-NMe-L--Cys-NMe-L--CYS(Me)]2 (Cysteine Thiol) Dilactone] (I: Quinoxaline2carbonyl-[dC]G[NMeC][NMeC](Me) / II: Quinoxaline2carbonyl-[dC]G[NMeC][NMeC](Me); thioester I:1-II:C, I:C-II:1; disulfide I:3-II:3) is “less potent cytotoxic activity”.
On the same count and under the same terms, the entry for `COc1ccc2nc(C(=O)N[C@@H]3CSC(=O)[C@H](CSC)N(C)C(=O)[C@@H]4CSSC[C@@H](C(=O)N(C)[C@@H](CSC)C(=O)SC[C@@H](NC(=O)c5nc6ccc(OC)cc6cc5O)C(=O)NCC(=O)N4C)N(C)C(=O)CNC3=O)c(O)cc2c1` [Compound 28, [N-(3-Hydroxy-6-methoxy-2-quinoline carboxyl)-D-Cys-Gly-NMe-L--CyS-NMe-L--Cys(Me)]2 (Cysteine Thiol) Dilactone] (I: {Quinaldoyl(3-OH,6-OMe)}-[dC]G[NMeC][NMeC](Me) / II: {Quinaldoyl(3-OH,6-OMe)}-[dC]G[NMeC][NMeC](Me); thioester I:1-II:C, I:C-II:1; disulfide I:3-II:3) is “potent activity”; for `CSC[C@H]1C(=O)SC[C@@H](NC(=O)OCC2c3ccccc3-c3ccccc32)C(=O)NCC(=O)N(C)[C@H]2CSSC[C@@H](C(=O)N1C)N(C)C(=O)CNC(=O)[C@H](NC(=O)OCC1c3ccccc3-c3ccccc31)CSC(=O)[C@H](CSC)N(C)C2=O` [Compound 32] (I: Fmoc-[dC]G[NMeC][NMeC](Me) / II: Fmoc-[dC]G[NMeC][NMeC](Me); thioester I:1-II:C, I:C-II:1; disulfide I:3-II:3) it is “inactive”.
For the molecule `CS[C@H]1SC[C@H]2C(=O)N(C)[C@@H](C(C)C)C(=O)OC[C@@H](NC(=O)c3cnc4ccccc4n3)C(=O)N[C@@H](C)C(=O)N(C)[C@@H]1C(=O)N(C)[C@@H](C(C)C)C(=O)OC[C@@H](NC(=O)c1cnc3ccccc3n1)C(=O)N[C@@H](C)C(=O)N2C` [echinomycin, reference compound], the “agent/base pair ratio required to unwind supercoiled DNA” value in the data set on supercoiled ΦX174 DNA (form I to form II gel mobility) was found to be 0.044 agent/base pair ratio. The “agent/base pair ratio for complete rewinding of supercoiled DNA” value with supercoiled ΦX174 DNA (form II to form I gel mobility) is on record as 0.22 agent/base pair ratio. In data set [3], the “inhibition of HIV-1 reverse transcriptase (in words)” value is “weak inhibitor”. Moreover, the “solubility (in words)” value in data set [1] was “low solubility”.
